For the test, the system named is BLM-induced lung fibrosis in mice. The experiment in a line: Bleomycin (BLM)-induced lung fibrosis mice model. Format: in vivo, C57BL/6JNarl mice. The conditions noted are these: BLM mice; for fibrosis score, Mean ± SEM: H&E histology day 39. The protocol:
FIGS. 8 (A) and (B) show the effect of L056 effect on fibrosis score of BLM-induced lung fibrosis in mice. C57BL/6 mice (8 weeks) were treated with bleomycin (BLM, 0.05 U/50 μl) or PBS (50 μl) by endotracheal administration. […] On day 39, the mice were sacrificed and, the histologic analysis of lung tissue was performed by hematoxylin-eosin (H&E) staining (original magnification, x100). […] (A), Histology fibrosis score plot; (B), H&E staining plot.
FIG. 9 (A) to (D) show the inhibitory effects on pro-fibrogenic mediators, collagen, CTGF, fibronectin and […], respectively. (A), H&E staining plot for collagen; (B), H&E staining plot for CTGF; (C), H&E staining plot for fibronectin; (D), H&E staining plot for α-SMA.
C57BL/6JNarl mice (8 weeks) were treated with bleomycin (BLM, 0.05 U/50 μl) or PBS (50 μl) by endotracheal administration. […] On day 39, the mice were sacrificed, and the histologic analysis of lung tissue was performed by hematoxylin-eosin (H&E) staining (original magnification, x100).

Setting [1] is: 200 mg (mg/kg/day, q.d., oral, days 10 to 38).
The mark [2] stands for this setting: 60 mg (oral, q.d., days 10 to 38).

For the compound `Cc1ccc(=O)n(-c2ccccc2)c1` [Esbriet, pirfenidone, reference compound], under setting [1], the “Efficacy % (reduction of fibrosis score)” value stood at 34.08% and the “fibrosis score, Mean ± SEM” value was determined as 3.91 ± 0.21.
Turning to `COC(=O)c1ccc2c(c1)NC(=O)/C2=C(\Nc1ccc(N(C)C(=O)CN2CCN(C)CC2)cc1)c1ccccc1` [OFEV, nintedanib, reference compound], under setting [2], the “Efficacy % (reduction of fibrosis score)” value was determined as 41.66% and the “fibrosis score, Mean ± SEM” value stood at 3.62 ± 0.30.
